Like-named read-outs stand apart in the source and are kept apart here.
Assay: Rat PK PBL cassette (i.v.)
Assay type: in vivo, Sprague-Dawley rat
Conditions: for Kp at 0.25 h: brain and plasma, read-out: Kp (total brain to plasma ratio); for Kp at 0.25 h / AUC / clearance / half-life / MRT / Vd / Kp (total brain to plasma ratio) / CLp / Elim. t1/2 / Vss: male SD rat, 0.2 mg/kg i.v. cassette; for Kp at 0.25 h / Kp (total brain to plasma ratio): 0.25 time point (15 min post dosing); for AUC / clearance / half-life / MRT / Vd / CLp / Elim. t1/2 / Vss: n = 1; for clearance: read-out: CLp; for half-life: read-out: Elim. t1/2 (converted); for Vd: read-out: Vss
Text: While ML133 has found use as a Kir2.1 tool molecule across many disease models, the in vivo PK of this and related compounds within the dibenzylamine chemotype have not previously been characterized. As a highly efficient method for profiling the PK of a compound set, we therefore examined ML133 (alongside 9 additional next-generation Kir2.1 inhibitors) in our rat PK PBL cassette dosing platform (Table ). − From this experimental setup, administration of a 4-compound bolus dose, plus a standard control, can be used to determine a variety of PK parameters in a high-throughput fashion. Specifically, Sprague–Dawley (SD) rats were given 0.2 mg/kg of each Kir2.1 inhibitor (i.v. dosing, 4 compounds +1 control, total dose 1 mg/kg) with PK measured across set time points up to 24 h. Additionally, a separate cohort of animals was utilized to assess total plasma-brain levels (PBL, ratio reported as Kp) of compound at a 0.25 time point. In this fashion, standard plasma-based PK parameters (elimination t 1/2, […] (MRT), plasma clearance (CLp), and volume of distribution (Vss)) were measured alongside a parallel assessment of total brain exposure.
PK PBL Cassette Experimental Conditions
4 compounds plus one control were formulated as a solution in ethanol, PEG400, and DMSO (1:3:6 v/v, respectively) at a concentration of 1 mg/mL and administered as a single IV dose (1 mL/kg, 0.2 mg/kg per compound, total 1 mg/kg) to male, Sprague Dawley rats (n = 1) via injection into a surgically -implanted jugular vein catheter. Blood samples were collected serially from a surgically implanted carotid artery catheter in each animal over multiple post -administration time points (0.033, 0.117, 0.25, 0.5, 1, 2, 4, 7, and 24 hours) into chilled, K 2EDTA anticoagulant - fortified tubes and immediately placed on wet ice. The blood samples were then centrifuged (1700 rcf, 5 minutes, 4 °C) to ob tain plasma samples, which were stored at -80 °C until analysis […]
For determination of the brain over plasma ratio (K p), the same cassette of compounds plus control were formulated in ethanol, PEG400, and DMSO (1:3:6 v/v, respectively) and administered as a single IV dose (1 mL/kg, 0.2 mg/kg per compound, total 1 mg/kg) to male, Sprague Dawley rats ( n = 1) via injection into a surgically-implanted jugular vein catheter. At 15 min post dosing, blood sample was collected terminally into chilled, K 2EDTA anticoagulant-fortified tube and immediately placed on wet ice. The bloo d sample was then centrifuged (1700 rcf, 5 minutes, 4 °C) to obtain plasma sample. At the same post-administration time point, whole brain sample was obtained by rapid dissection, rinsed with PBS, and immediately frozen in individual tissue collection box (dry ice). All brain and plasma samples were stored at -80 °C until […]
Samples preparation for bioanalysis
Plasma samples from the in-life phase of the study were thawed at ambient temperature (benchtop), and then aliquots (20 µL per sample) were transferred to a 96-shallow-well (V-bottom) plate. Matrix-matched quality control (QC) samples and a standard curve of each analyte (1 mg/mL DMSO stock solution) were prepared in blank rat plasma (K2EDTA-treated) via serial dilution and transferred (20 µL each) to the plate along with multiple blank plasma samples. MeCN (120 µL) containing IS (10 nM carbamazepine) was added to each well of the plate to precipitate protein. The plate was then centrifuged (4000 rcf, 5 minutes, ambient temperature), and resulting supernatants (60 µL each) were transferred to a new 96-shallow-well (V-bottom) plate containing an equal volume (60 µL per well) of water (Milli-Q purified). The plate was then sealed in preparation for LC-MS/MS analysis.
Preparation of brain samples was identical to that of plasma samples except for the following modifications. While thawing, brains were weighed (inside their collection boxes using a universal empty collection box tare weight) and then subjected to mechanical homogenization […]

[1] = Sprague-Dawley, plasma, iv, read-out: AUC
[2] = Sprague-Dawley, plasma, iv, read-out: MRT

SMILES	Kp at 0.25 h (Sprague-Dawley, iv)	AUC [1] [ng·h/mL]	clearance (Sprague-Dawley, plasma, iv) [mL/min/kg]	half-life (Sprague-Dawley, plasma, iv) [h]	MRT [2] [h]	Vd (Sprague-Dawley, plasma, iv) [L/kg]	Kp (total brain to plasma ratio)	AUC [ng·h/mL]	CLp [mL/min/kg]	Elim. t1/2 [h]	MRT [h]	Vss [L/kg]	Fold longer t1/2 compared to ML133 (rat i.v. cassette) [fold]	Fold lower overall plasma clearance compared to ML133 (rat i.v. cassette) [fold]
COc1ccc(CNCc2cccc(-c3ccccc3)c2)cc1 [Compound 5j]	4.23	105	31.7	1.18	1	1.9								
[2H]C([2H])([2H])Oc1ccc(CNCc2ccc(-c3cccc(OC)c3)cc2)cc1 [Compound 9]							2.15	131	25.4	1.56	1.02	1.55		
COc1ccc(CNCc2cccc3ccccc23)cc1 [ML133, N-(4-methoxybenzyl)-1-(naphthalen-1-yl)methanamine, reference compound]	3.36	104	31.9	0.75	0.78	1.5								
COc1ccc(CNCc2ccc(-c3cccc(C#N)c3)cc2)cc1 [Compound 5t]	1.25	165	20.2	1.66	0.99	1.2								
COc1ccc(CNCc2ccc(-c3ccccc3)cc2)cc1 [Compound 5k]	1.82	148	22.6	1.68	1.08	1.46								
COc1ccc(CNCc2ccc(-c3cccc(F)c3)cc2)cc1 [Compound 5p]	2.27	109	30.6	0.69	0.76	1.39								
[2H]C([2H])([2H])Oc1ccc(CNCc2ccc(-c3cccc(OC([2H])([2H])[2H])c3)cc2)cc1 [Compound 13]							2.06	126	26.4	1.59	1.00	1.58		
COc1ccc(CNCc2ccc(-c3cccc(OC)c3)cc2)cc1 [Compound 5s, 1-(3′-Methoxy-[1,1’-biphenyl]-4-yl)-N-(4-methoxybenzyl)methanamine]	1.81	189	17.7	1.56	0.99	1.06								
COc1ccc(CNCc2ccc3c(c2)OC(F)(F)O3)cc1 [Compound 5h]	2.13	110	30.4	1.33	0.87	1.58								
[2H]C([2H])([2H])Oc1ccc(CNCc2cccc3ccccc23)cc1 [Compound 7]	3.3	146	22.8	1.39	1.24	1.7							~2	~1.4
[2H]C([2H])([2H])Oc1cccc(-c2ccc(CNCc3ccc(OC)cc3)cc2)c1 [Compound 11]							1.94	127	26.2	1.54	0.81	1.27		

From paper PMC12434521, “Characterization of Next-Generation Inhibitors for the Inward-Rectifier Potassium Channel Kir2.1: Discovery of VU6080824” (ACS Medicinal Chemistry Letters, 2025)
